Patent US7629135B2, “Toll-like receptor agonists and antagonists and methods of use thereof” (The Board of Trustees of the University of Illinois, priority 2006, dated 2009)

Columns and labels:
[1] = tested on: mouse bone marrow derived macrophages (BMDM); assay: G-CSF secretion in mouse BMDM (ELISA); type: cell-based; conditions: for G-CSF secretion by FPRL1 agonists: 16 h
Method: SAA induces G-CSF expression in monocytes and macrophages: To determine whether SAA plays a role in neutrophilia, the ability of SAA to stimulate G-CSF expression was investigated. Human peripheral blood monocytes (PBMC) were incubated with SAA, and the concentration of secreted G-CSF in the culture medium was determined at various time points after stimulation. The concentration of SAA used in this experiment (1 μM) was well within its physiological range (0.08 μM to 80 μM). […] Since subsequent studies used mice for measurement of G-CSF secretion and neutrophilia, SAA-induced G-CSF expression in mouse bone marrow derived macrophages (BMDM) was determined, of which 98% were F4/80^+ CD14^+ based on flow cytometry analysis. […] The basal level of G-CSF remained stable at approximately 42 pg/ml/10^6 cells over the entire course of incubation.
It was next determined whether induction of G-CSF expression was a primary function of SAA or resulted from contaminating LPS in the SAA preparation. The LPS concentration in the recombinant SAA preparation was ≦0.1 ng/μg protein, translating into ≦1.14 ng/ml LPS in a typical experiment with 1 μM SAA. LPS at this or 10-fold higher concentrations was tested for its effect on the expression of G-CSF. […] Given that most proteins are heat labile while LPS is heat resistant, the ability of heat-treated SAA (1 μM) and LPS (1 μg/ml) to stimulate G-CSF secretion in mouse BMDM was examined. After boiling for 25 min, LPS retained its ability to induce G-CSF production by ˜83%. […] In parallel experiments, polymyxin B, an amphiphilic cyclic polycationic peptide that specifically binds to LPS and blocks the cytokine-inducing effect of LPS (Stokes et al., 1989), was used to treat SAA or LPS prior to incubation with BMDM. […] Under the same experimental conditions, polymyxin B reduced LPS-stimulated G-CSF secretion by more than 70%.
It was previously shown that FPRL1 is involved in SAA-induced IL-8 production in human neutrophils (He et al., 2003). It has also been shown that SAA binds to FPRL1 and stimulates the production of matrix metalloproteinase (O'Hara et al., 2004). […] A role of TLR2 in SAA-stimulated G-CSF expression was examined.
Cell preparation and culture: Human peripheral blood monocytes were prepared from fresh, heparinized venous blood by Ficoll-Hypaque density-gradient centrifugation. Blood drawing followed a protocol approved by the Institutional Review Board at the University of Illinois at Chicago. Purified monocytes (>93% CD14^+ by flow cytometry) were kept in nonadherent condition in RPMI 1640 containing 0.5% FBS and maintained at 37° C. Mouse macrophages were differentiated from bone marrow cells. Mouse bone marrow cells were aspirated from the femurs of 8-12-week-old mice and cultured at 37° C. in 5% CO2 in RPMI 1640 medium containing 10% FBS, 15% L-cell conditional medium, 10 mM HEPES, 2 mM L-glutamine, 100 IU/ml penicillin, and 50 μg/ml streptomycin. The medium was changed every three days. Macrophages (about 98% F4/80+ by flow cytometry) were obtained after 7 days of culture. The mouse macrophage cell line RAW264.7 cells were maintained in DMEM medium supplemented with 10% FBS, 10 mM HEPES, 2 mM L-glutamine, 100 IU/ml penicillin, and 50 μg/ml streptomycin. TLR2-HeLa cells were generated by transfection of HeLa cell with the expression construct pUNO-hTLR2 (InvivoGen). Stable transfectants were selected with Blasticidin at 20 μg/ml for 2 weeks. Mock-transfected HeLa cells were generated similarly, with a pUNO empty vector. Cells were maintained in DMEM supplemented with 10% heat-inactivated FBS, 2 mM L-glutamine, 100 IU/ml penicillin, and 50 μg/ml streptomycin. Expression of TLR2 was confirmed using an anti-TLR2 antibody (eBioscience) and FTTC-conjugated anti-mouse antibody, on a FACSCalibur flow cytometer (Becton Dickinson). FIGS. 12 and 13 are plasmid maps of pUNO-hTLR2 and pNF-κB-Luc, respectively. […]

[2] = tested on: RelA/p65 binding to the CK-1 site of the G-CSF promoter; assay: Chromatin immunoprecipitation (ChIP) assay in RAW264.7 cells; type: cell-based, mouse; conditions: SAA 1 μM or TNFα 50 ng/ml
Method: To investigate the mechanism for SAA-induced G-CSF production, the level of G-CSF transcript in SAA-stimulated BMDM was determined. […] The induction of G-CSF transcript peaked at 4 h after SAA stimulation. Since transcription of the G-CSF gene involves NF-κB binding to the RelA/p65 consensus element in the CK-1 site of the G-CSF promoter (Dunn et al., 1994; Hareng and Hartung, 2002), the role of NF-κB in SAA-stimulated G-CSF expression was determined. […] Using oligonucleotide probe based on the sequence of the CK-1 site (−161 to −152 in the G-CSF promoter), a protein •DNA complex (FIG. 2C) was identified. […] Inclusion of a RelA/p65 antibody blocking peptide in the assay abrogated the immunoprecipitation (FIG. 2D).
ChIP assay: Reagents were obtained from Upstate Biotechnology, and ChIP assay was performed as per manufacturers specifications with minor modifications. Briefly, a total of 1×10^7 RAW264.7 cells were harvested and resuspended in a serum-free DMEM medium absence or presence of 1 μM SAA, or 50 ng/ml of TNFα, and incubated for 30 or 60 min at 37° C. Following stimulation, cells were crosslinked and then washed and resuspended in SDS-lysis buffer, and were sonicated (4 times for 10 s each, with a setting at ‘4’ on a Fisher Sonic 60 dismembrenator). […] The PCR products were analyzed on a 2.5% agarose gel.

TLR2 = target: T1, TLR2 (Homo sapiens, UniProt O60603); assay: NF-κB luciferase reporter assay in TLR2-HeLa cells; type: cell-based; conditions: HDL preincubation
T1 construct: host or cells: HeLa
Method: To determine whether TLR2 is a receptor for SAA, a TLR2-expressing cell line was prepared in HeLa cells, which contain very little endogenous TLR2 transcript (FIG. 6A, upper panel). […] TLR2 is a class I transmembrane protein that contains an extracellular ligand binding domain (ectodomain), a transmembrane domain and a cytoplasmic domain consisting of the Toll/IL-1/receptor/Resistance (TIR) motif. Studies have shown that TLR2 forms heterodimers with TLR1 and TLR6 (Ozinsky et al., 2000), which display different preference for TLR2 ligands (Hoebe et al., 2005; Takeuchi et al., 2002). The C-terminal TIR domain is conserved among TLRs and responsible for TLR signaling (O'Neill and Bowie, 2007; Takeda and Akira, 2004). To assess the relative contributions of TLRs to SAA signaling, TLR1, TLR2, TLR4 and TLR6 were overexpressed in the TLR2-HeLa cells, and their effects on SAA-induced NF-κB luciferase reporter activity were determined. […] In addition, the TIR domain deletion mutants (ΔTIR) of these receptors were expressed, which are negative regulators of TLR signaling.
Methods for the generation of TLR2-HeLa stable cell line: HeLa cells stably transfected with human TLR2 gene were generated by transfecting HeLa cells with the expression construct pUNO-hTLR2 (InvivoGen, San Diego, Calif.; GenBank accession number for human TLR2 cDNA is NM_003264) and selected with Blasticidin at concentration of 20 μg/ml for 2 weeks. The control HeLa cells were generated at the same time by transfecting with empty pUNO vector. Cells were maintained in DMEM supplemented with 10% heat-inactivated FB S, 2 mM L-glutamine, 100 IU/ml penicillin, and 50 μg/ml streptomycin. Expression of TLR2 was confirmed using an anti-TLR2 antibody (eBioscience) and FTTC-conjugated anti-mouse antibody, on a FACSCalibur flow cytometer (Becton Dickinson). The TLR2-HeLa and control cells were then co-transfected with 5xNF-κB reporter plasmids (pNF-κB-Luc, Stratagene, Cedar Creek, Tex., catalog no. 219077) and empty SFFV vector bearing a neomycin resistant gene. The TLR2-HeLa/NF-κB reporting cells were obtained after selecting with G418 at concentration of […] for 2-3 weeks. Cells (5′10^5/ml) were grown in DMEM supplemented with 10% heat-inactivated FBS, 2 mM L-glutamine, 100 IU/ml penicillin, and […] streptomycin.
Methods for using HeLa cells in reporter assay: Mock-transfected HeLa and TLR2-HeLa cells were maintained at ˜5×10^5 cells/well in six-well plates, transfected with plasmid expression vectors coding for a 3×κB-directed luciferase reporter, pCMVβ vector DNA (Promega) and/or other expression constructs as indicated. Total DNA concentration was adjusted to 1 μg/sample by addition of empty vector DNA. Transient transfection was performed using LipofectAmine Plus reagent (Invitrogen). […]

T1 sequence (O60603 21-784): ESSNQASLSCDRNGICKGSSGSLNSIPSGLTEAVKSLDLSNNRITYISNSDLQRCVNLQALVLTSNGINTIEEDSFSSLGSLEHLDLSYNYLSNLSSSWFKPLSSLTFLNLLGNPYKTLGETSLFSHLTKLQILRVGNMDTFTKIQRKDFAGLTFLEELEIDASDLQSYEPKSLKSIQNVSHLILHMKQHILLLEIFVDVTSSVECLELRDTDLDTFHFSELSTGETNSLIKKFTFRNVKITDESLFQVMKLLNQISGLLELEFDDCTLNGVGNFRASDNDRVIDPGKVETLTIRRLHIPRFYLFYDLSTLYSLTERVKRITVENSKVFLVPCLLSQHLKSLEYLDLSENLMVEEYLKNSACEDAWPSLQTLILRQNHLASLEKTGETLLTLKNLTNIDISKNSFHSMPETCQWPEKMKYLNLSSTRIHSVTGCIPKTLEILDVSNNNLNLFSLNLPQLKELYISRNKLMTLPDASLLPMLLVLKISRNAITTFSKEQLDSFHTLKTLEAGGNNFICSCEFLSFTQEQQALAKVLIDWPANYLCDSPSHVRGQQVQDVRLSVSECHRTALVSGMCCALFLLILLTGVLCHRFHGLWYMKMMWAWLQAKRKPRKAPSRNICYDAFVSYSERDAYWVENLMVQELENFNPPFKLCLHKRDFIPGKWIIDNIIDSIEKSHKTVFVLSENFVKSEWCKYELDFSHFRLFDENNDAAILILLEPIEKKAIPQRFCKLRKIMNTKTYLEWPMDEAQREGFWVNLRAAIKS
T1 sequence (Q15399 25-786 partner): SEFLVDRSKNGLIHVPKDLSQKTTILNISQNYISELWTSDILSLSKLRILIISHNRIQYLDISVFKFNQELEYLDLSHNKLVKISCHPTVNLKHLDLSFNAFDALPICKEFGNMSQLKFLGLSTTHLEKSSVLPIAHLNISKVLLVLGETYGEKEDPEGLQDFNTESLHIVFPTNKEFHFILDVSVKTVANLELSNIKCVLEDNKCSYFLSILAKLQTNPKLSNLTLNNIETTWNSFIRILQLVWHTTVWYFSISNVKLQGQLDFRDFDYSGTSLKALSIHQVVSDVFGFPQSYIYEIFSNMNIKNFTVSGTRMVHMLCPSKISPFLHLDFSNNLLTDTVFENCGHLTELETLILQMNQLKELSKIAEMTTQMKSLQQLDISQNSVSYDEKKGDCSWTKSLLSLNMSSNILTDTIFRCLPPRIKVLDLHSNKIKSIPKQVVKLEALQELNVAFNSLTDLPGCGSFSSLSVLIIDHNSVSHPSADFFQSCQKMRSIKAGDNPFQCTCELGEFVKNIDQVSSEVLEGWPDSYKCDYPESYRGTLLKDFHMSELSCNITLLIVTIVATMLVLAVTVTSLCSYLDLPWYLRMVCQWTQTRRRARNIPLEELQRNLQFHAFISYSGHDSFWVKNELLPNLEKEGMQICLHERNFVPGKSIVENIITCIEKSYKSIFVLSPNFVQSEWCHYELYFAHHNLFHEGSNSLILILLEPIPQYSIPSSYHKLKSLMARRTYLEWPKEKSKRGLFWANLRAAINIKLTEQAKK

## LESIFRSLLFRVM [MMK-1, reference compound]
[1]; BMDM
  G-CSF secretion by FPRL1 agonists: unable to stimulate G-CSF secretion

## Polymyxin B [reference compound]
[1]; polymyxin B 50 μg/ml pretreatment of LPS 1 μg/ml, BMDM
  reduction of LPS-stimulated G-CSF secretion: more than 70%
[1]; polymyxin B 50 μg/ml pretreatment of SAA, BMDM
  effect on potency of SAA in stimulating G-CSF expression: minimal effect

## TNFα [reference compound]
[2]
  pull-down of CK-1 DNA fragment by anti-RelA/p65 antibody: able to pull-down the CK-1 DNA fragment

## WKYMVm [reference compound]
[1]; BMDM
  G-CSF secretion by FPRL1 agonists: unable to stimulate G-CSF secretion

## pertussis toxin [reference compound]
[1]; BMDM pretreated overnight with pertussis toxin up to 200 ng/ml, then SAA 16 h
  inhibition of SAA-induced G-CSF secretion: no significant inhibition

B1: L7A: SAA with Leucine to Alanine mutation at position 7 (protein)
chain: RSFFSFAGEAFDGARDMWRAYSDMREANYIGSDKYFHARGNYDAAKRGPGGAWAAEVITDARENIQRFFGHGAEDSLADQAANEWGRSGKDPNHFRPAGLPEKY
TLR2
  effect of L7A mutation of SAA on the reduction by HDL of NF-κB activation: partially reversed the reduction effect by HDL
